# Source: patent US20230087844A1, “USE OF N2-QUINCLINE OR ISOQUINOLINE SUBSTITUTED PURINE DERIVATIVES IN CANCER TREATMENT” (SHANGHAI HUAYU BIOTECHNOLOGY CO., LTD., priority 2020, published 2023)
# Marks after values point to notes of the source that are not given here.
# Assays:
# MV-4-11 cells [1] = test: MV-4-11 AML xenograft in mice (Example 7); assay type: in vivo, BALB-cA nude mice; conditions: D0-20; for Complete remission: number of mice, N 6
# Protocol: Mice body weights and tumor sizes were measured twice a week. The tumor volume, T/C and TGI (Tumor growth inhibition=(average tumor volume in vehicle group-average tumor volume in administration group)/average tumor volume in vehicle group ×100%) were calculated. Mice were sacrificed on Day 21.
# [2] = test system: S180 murine sarcoma cancer cells; test: S180 sarcoma growth in mice; conditions: 30 mg/kg I.P., D1-7
# Protocol: On Day 8, the mice were weighed and sacrificed, and the tumors were collected and weighed.
# Tumor growth inhibition (TGI) was calculated by the following formula. Tumor growth inhibition=(average tumor weight in vehicle group-average tumor weight in administration group)/average tumor weight in vehicle group×100%
# [3] = test system: Colon26 murine colon cancer cells; test: Colon26 colon cancer growth in mice; assay type: in vivo, F1 mice; conditions: for TGI / Tumor weight: Day 8
# Protocol: F1 mice, 18-22 g, purchased from Shanghai Bi-Kai Laboratory Animal Co., Ltd, were subcutaneously inoculated with Colon26 murine colon cancer cells (from Cell Bank, Chinese Academy of Sciences) at the right axilla. […] Tumor growth inhibition (TGI) was calculated.
# [4] = test system: A549 human non-small cell lung cancer cells; test: A549 non-small cell lung cancer xenograft in mice; conditions: 5 mg/kg I.P., D0, 3
# Protocol: Mice body weights and tumor sizes were measured 2 to 3 times a week. The tumor volume (V) was calculated as (length× width^2)/2. T/C (%) was calculated as (T-T0)/(C-C0)×100, wherein T and C represented the tumor volumes in the administration group and the vehicle group respectively at the end of the experiment, while T0 and C0 represented the tumor volumes in the administration group and the vehicle group respectively at the beginning of the experiment. And RTV was calculated as (Tumor volume at Day N/Tumor volume at Day 0). Mice were sacrificed on Day-14.
# BALB/cA-nude mice, 5-6 weeks old, purchased from Shanghai SLAC Laboratory Animal Co., Ltd, were subcutaneously inoculated with A549 human non-small cell lung cancer cells (from ATCC).
# (§7) Mice body weights and tumor sizes were measured 2 to 3 times a week. The tumor volume, T/C and RTV were calculated as described above. Mice were sacrificed on Day 18.
# [5] = test system: SGC-7901 human gastric cancer cells; test: SGC-7901 gastric cancer xenograft in mice; conditions: 5 mg/kg I.P., D0, 6
# Protocol: Mice body weights and tumor sizes were measured 2 to 3 times a week. The tumor volume (V) was calculated as (length× width^2)/2. T/C (%) was calculated as (T-T0)/(C-C0)×100, wherein T and C represented the tumor volumes in the administration group and the vehicle group respectively at the end of the experiment, while T0 and C0 represented the tumor volumes in the administration group and the vehicle group respectively at the beginning of the experiment. And RTV was calculated as (Tumor volume at Day N/Tumor volume at Day 0).
# BALB/cA-nude mice, 5-6 weeks old, purchased from Shanghai SLAC Laboratory Animal Co., Ltd, were subcutaneously inoculated with SGC-7901 human gastric cancer cells (from Cell Bank, Chinese Academy of Sciences).
# as §7
# MV-4-11 cells [6] = test: MV-4-11 AML xenograft in mice, combination with daunorubicin (Example 8); assay type: in vivo, BALB-cA nude mice; conditions: 2 mg/kg I.V., D0-10
# Protocol: Mice body weights and tumor sizes were measured twice a week. The tumor volume, T/C and TGI (Tumor growth inhibition=(average tumor volume in vehicle group-average tumor volume in administration group)/average tumor volume in vehicle group ×100%) were calculated. Mice were sacrificed on Day 21. Female BALB-cA nude mice, 6-7 weeks old, purchased from Shanghai Ling-chang Biotech Co., Ltd, were subcutaneously inoculated with MV-4-11 cells (from ATCC). […] Mice body weights and tumor sizes were measured twice a week. The tumor volume, T/C and tumor volume based TGI were calculated as described above. Mice were sacrificed on Day 11.
# H446 = test: Tumor cell death by MTT, H446; assay type: cell-based, human; conditions: 10 μM
# Protocol: (§1) The in vitro inhibitory effect of Compound A alone or in combination with a PARP inhibitor on tumor cell growth was tested using human small cell lung cancer (SCLC) cell lines, including H69 (ATCC® HTB-119™), H526 (ATCC® CRL-5811™) and H446 (TCHu196, National Collection of Authenticated Cell Cultures).
# (§2) Briefly, the cells were seeded into a 96-well dish with RPMI-1640 (10-040-CV, Coming cellgro) containing 10% fetal bovine serum (10270-106, GIBCO), 1% penicillin and 1% streptomycin (BaSalMedia, S110JV), at an initial density of 3×10^3 cells per well ([…]), and cultured at a 37° C., 5% CO2 humidified incubator for 24 hours. Then, the culture media were added with Compound A (final concentration at 20 nM), olaparib (APEXBIO, A4154, a PARP inhibitor, final concentration at 10 μM), Compound A + olaparib (final concentrations at20 nM and 10 μM), or PBS (vehicle), respectively, and the cells were cultured for 48 hours. Then, cell viability was determined by MTT. The test was done in triplicate.
# (§3) Cell death rate was calculated by the following formula.
# (§4) Cell death rate=[1−(ODtest-ODvehicle)]×100%
# (§5) Cell death rates were analyzed using student's t-test, and group differences were deemed statistically significant when the p-value was lower than 0.05. Zheng-Jun Jin's Q value was calculated using the formula Q=EA+B/(EA+EB-EA×EB) to assess the combined effect of Compound A and the PARP inhibitor, wherein EA+B, EA, and EB referred to the cell death rates caused by the combined treatment, Compound A treatment and PARP inhibitor treatment, respectively. A Q value higher than 1.15 meant a synergistic […] effect.
# (§6) Another PARP inhibitor, rucaparib (APEXBIO, A4156), was tested alone or with Compound A for inhibitory effect on tumor cell growth, following the protocol of Example 9.
# H69 = test: Tumor cell death by MTT, H69; assay type: cell-based, human; conditions: 10 μM
# Protocol: as §1, §2, §3, §4, §5, §6
# H526 = test: Tumor cell death by MTT, H526; assay type: cell-based, human; conditions: 10 μM
# Protocol: as §1, §2, §3, §4, §5, §6
# [7] = test system: Ls-174t human colon cancer cells; test: Ls-174t colon cancer xenograft in mice; assay type: in vivo, BALB/cA-nude mice; conditions: 153 mg/kg I.P., D0-4, 7-11
# Source text: Mice were sacrificed on Day-14.
smiles,measurement,setting,value
"CC[C@H](Nc1ncnc2[nH]cnc12)c1nc2cccc(F)c2c(=O)n1-c1ccccc1 [CAL 101, reference compound]",T/C (%) D21,MV-4-11 cells [1]; 90 mg/kg P.O.,50%
same,TGI (%) D21,MV-4-11 cells [1]; 90 mg/kg P.O.,50%
same,Tumor volume D0,MV-4-11 cells [1]; 90 mg/kg P.O.,79.6 ± 3.1 mm^3
same,Tumor volume D21,MV-4-11 cells [1]; 90 mg/kg P.O.,442.2 ± 93.8 mm^3
same,Complete remission,MV-4-11 cells [1]; 90 mg/kg P.O.,0
same,T/C (%) D21,MV-4-11 cells [1]; 180 mg/kg P.O.,39%
same,TGI (%) D21,MV-4-11 cells [1]; 180 mg/kg P.O.,61%
same,Tumor volume D0,MV-4-11 cells [1]; 180 mg/kg P.O.,78.9 ± 1.9 mm^3
same,Tumor volume D21,MV-4-11 cells [1]; 180 mg/kg P.O.,361.7 ± 93.8 mm^3
same,Complete remission,MV-4-11 cells [1]; 180 mg/kg P.O.,0
"O=P1(N(CCCl)CCCl)NCCCO1 (stereo not drawn) [CTX, cyclophosphamide, reference compound]",Body weight (without tumor) D1,[2],21.8 g
same,Body weight (without tumor) D8,[2],26.8 g
same,Tumor weight on Day 8,[2],0.60 ± 0.18 g
same,TGI,"[2]; tumor weight, Day 8",68.8* %
same,Body weight (without tumor) at D8,"[3]; 30 mg/kg I.V., D1-7",21.22 g
same,TGI,"[3]; 30 mg/kg I.V., D1-7",79.00%
same,Tumor weight,"[3]; 30 mg/kg I.V., D1-7",0.43 g
"N.N.[Cl][Pt][Cl] [Cisplatin, cisplatin, reference compound]",Body weight (with tumor) D0,[4],16.7 g
same,Body weight (with tumor) D18,[4],15.3 g
same,RTV at D18,[4],8.89 ± 5.39
same,Tumor volume D0,[4],110 ± 12 mm^3
same,Tumor volume D18,[4],944 ± 536 mm^3
same,T/C,[4]; D18,33.7* %
same,Body weight (with tumor) D0,[5],18.4 g
same,Body weight (with tumor) D18,[5],16.0 g
same,RTV at D18,[5],2.85 ± 1.52
same,Tumor volume D0,[5],127 ± 24 mm^3
same,Tumor volume D18,[5],366 ± 201 mm^3
same,T/C,[5]; D18,34.9* %
"COc1cccc2c1C(=O)c1c(O)c3c(c(O)c1C2=O)C[C@@](O)(C(C)=O)C[C@@H]3O[C@H]1C[C@H](N)[C@H](O)[C@H](C)O1 [Daunorubicin, daunorubicin, reference compound]",T/C,MV-4-11 cells [6]; D11,38%
same,TGI,MV-4-11 cells [6]; D11,62%
same,Tumor volume D0,MV-4-11 cells [6]; in mm³,152.9
same,Tumor volume D11,MV-4-11 cells [6]; in mm³,1167.3
"Nc1ccn([C@@H]2O[C@H](CO)[C@@H](O)C2(F)F)c(=O)n1 [Gemcitabine, gemcitabine]",Body weight (without tumor) at D8,"[3]; 10 mg/kg I.V., D1",22.31 g
same,TGI,"[3]; 10 mg/kg I.V., D1",57.51%
same,Tumor weight,"[3]; 10 mg/kg I.V., D1",0.86 g
same,Body weight (without tumor) at D8,"[3]; 20 mg/kg IV, D1",22.35 g
same,TGI,"[3]; 20 mg/kg IV, D1",81.53%
same,Tumor weight,"[3]; 20 mg/kg IV, D1",0.38 g
"O=C(c1cc(Cc2n[nH]c(=O)c3ccccc23)ccc1F)N1CCN(C(=O)C2CC2)CC1 [Olaparib, olaparib, reference compound]",Cell Death Rate/% 1,"H446; 48 hours, Table 10",12.01%
same,Cell Death Rate/% 2,"H446; 48 hours, Table 10",12.55%
same,Cell Death Rate/% 3,"H446; 48 hours, Table 10",12.24%
same,Cell Death Rate/% mean,"H446; 48 hours, Table 10",12.27%
same,Cell Death Rate/% 1,"H69; 48 hours, Table 10",6%
same,Cell Death Rate/% 2,"H69; 48 hours, Table 10",6.25%
same,Cell Death Rate/% 3,"H69; 48 hours, Table 10",6.54%
same,Cell Death Rate/% mean,"H69; 48 hours, Table 10",6.26%
same,Cell Death Rate/% 1,"H526; 48 hours, Table 10",5.25%
same,Cell Death Rate/% 2,"H526; 48 hours, Table 10",4.92%
same,Cell Death Rate/% 3,"H526; 48 hours, Table 10",5.13%
same,Cell Death Rate/% mean,"H526; 48 hours, Table 10",5.10%
"Nc1nc2[nH]cc(CCc3ccc(C(=O)N[C@@H](CCC(=O)O)C(=O)O)cc3)c2c(=O)[nH]1 [Pemetrexed disodium, pemetrexed disodium, reference compound]",Body weight (without tumor) D0,[7],24.0 g
same,Body weight (without tumor) D14,[7],15.3 g
same,RTV at D14,[7],9.14 ± 2.86
same,Tumor volume D0,[7],138 ± 33 mm^3
same,Tumor volume D14,[7],1209 ± 244 mm^3
same,T/C,[7]; D14,43.3* %
"CNCc1ccc(-c2[nH]c3cc(F)cc4c3c2CCNC4=O)cc1 [Rucaparib, rucaparib, reference compound]",Cell Death Rate/% 1,"H446; Example 10, Table 11",14%
same,Cell Death Rate/% 2,"H446; Example 10, Table 11",13.79%
same,Cell Death Rate/% 3,"H446; Example 10, Table 11",14.48%
same,Cell Death Rate/% mean,"H446; Example 10, Table 11",14.09%
same,Cell Death Rate/% 1,"H69; Example 10, Table 11",7.51%
same,Cell Death Rate/% 2,"H69; Example 10, Table 11",7.3%
same,Cell Death Rate/% 3,"H69; Example 10, Table 11",8.11%
same,Cell Death Rate/% mean,"H69; Example 10, Table 11",7.64%
same,Cell Death Rate/% 1,"H526; Example 10, Table 11",6.73%
same,Cell Death Rate/% 2,"H526; Example 10, Table 11",6.57%
same,Cell Death Rate/% 3,"H526; Example 10, Table 11",6.19%
same,Cell Death Rate/% mean,"H526; Example 10, Table 11",6.50%
